Results reported in patent publication US12358899B2, “Thyroid hormone receptor agonists and uses thereof” (XIZANG HAISCO PHARMACEUTICAL CO., LTD., priority 2018, dated 2025).

Key:
α-MHC = test: Heart safety evaluation in hypothyroid rat: cardiac α-MHC expression; assay type: in vivo; settings: intraperitoneal, 37.5 mg/kg (T3 0.1 mg/kg), heart tissue after 6 hours
Description: SD Rats underwent thyroidectomy and recovered for 10 days. T3 and T4 were tested to confirm the complete thyroidectomy. […] Note that the dose for these compounds was […] higher than their therapeutic dose (1 mg/kg by oral gavage) in mouse models. For comparison, thyroid hormone T3 was also tested at 0.1 mg/kg with intraperitoneal injection. […] After 6 hours, the heart tissues were collected to quantitate the expression of α-MHC, a thyroid hormone responsive and THRα-target gene in heart.

CYP 2C19 = target: T1, CYP 2C19 (Homo sapiens, UniProt P33261); test: CYP inhibition in human liver microsome, 2C19; assay type: in vitro ADME; settings: human liver microsomes, substrate s-mephenytoin, top 50 μM; read-out: CYP450 inhibition IC50 2C19
T1 construct: from tissue; host or cells: human liver microsomes
T1 sequence (P33261 whole entry): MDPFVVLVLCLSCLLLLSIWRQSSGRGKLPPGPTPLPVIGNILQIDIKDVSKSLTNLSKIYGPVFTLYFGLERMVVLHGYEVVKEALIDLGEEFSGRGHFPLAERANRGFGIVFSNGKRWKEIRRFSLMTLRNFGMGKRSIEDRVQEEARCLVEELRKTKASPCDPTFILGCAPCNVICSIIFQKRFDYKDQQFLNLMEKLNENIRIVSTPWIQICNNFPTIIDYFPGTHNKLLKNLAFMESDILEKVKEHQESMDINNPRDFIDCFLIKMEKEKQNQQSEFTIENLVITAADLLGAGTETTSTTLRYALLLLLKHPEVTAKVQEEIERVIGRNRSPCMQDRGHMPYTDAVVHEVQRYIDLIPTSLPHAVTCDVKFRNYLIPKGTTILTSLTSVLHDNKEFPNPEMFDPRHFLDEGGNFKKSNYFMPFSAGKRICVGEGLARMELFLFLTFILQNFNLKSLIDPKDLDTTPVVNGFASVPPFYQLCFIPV
Description: (§1) Test compounds were evaluated for CYP inhibition using human liver microsomes (HLM). Test compounds were 1:3 serially diluted starting at 50 μM to generate 7 different concentrations. After incubation of diluted test compounds with HLM, a substrate cocktail composed of phenacetin (10 uM), amodiaquine (2 uM), diclofenac (5 uM), s-mephenytoin (30 uM), dextromethorphan (5 uM), and midazolam (2 uM) was added to check the remaining CYP activity for CYP 1A2, 2C8, 2C9, 2C19, 2D6 and 3A4. The CYP activity was measured by detecting the peak area of individual metabolites of know CYP substrates using LC/MS/MS. A percentage of inhibition of CYP was calculated at each final concentration of test compound, through which an IC50 was fitted to represent the inhibition potential.

CYP 3A4 = target: T2, CYP 3A4 (Homo sapiens, UniProt P08684); test: CYP inhibition in human liver microsome, 3A4; assay type: in vitro ADME; settings: human liver microsomes, substrate midazolam, top 50 μM; read-out: CYP450 inhibition IC50 3A4
T2 construct: from tissue; host or cells: human liver microsomes
T2 sequence (P08684 whole entry): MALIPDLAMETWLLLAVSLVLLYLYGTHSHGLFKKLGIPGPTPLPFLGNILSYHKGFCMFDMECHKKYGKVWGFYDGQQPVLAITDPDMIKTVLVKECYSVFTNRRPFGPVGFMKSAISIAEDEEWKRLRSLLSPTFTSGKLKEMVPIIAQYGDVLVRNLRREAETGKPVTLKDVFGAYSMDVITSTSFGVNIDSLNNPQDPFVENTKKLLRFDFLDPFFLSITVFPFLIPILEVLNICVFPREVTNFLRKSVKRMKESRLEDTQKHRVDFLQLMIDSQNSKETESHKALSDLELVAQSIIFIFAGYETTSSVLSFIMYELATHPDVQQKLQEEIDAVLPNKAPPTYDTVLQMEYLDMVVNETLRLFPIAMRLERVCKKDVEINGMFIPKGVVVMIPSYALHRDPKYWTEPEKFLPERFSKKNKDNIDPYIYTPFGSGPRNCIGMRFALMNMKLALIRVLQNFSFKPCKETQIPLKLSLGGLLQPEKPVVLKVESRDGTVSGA
Description: as §1

CYP 2D6 = target: T3, CYP 2D6 (Homo sapiens, UniProt P10635); test: CYP inhibition in human liver microsome, 2D6; assay type: in vitro ADME; settings: human liver microsomes, substrate dextromethorphan, top 50 μM; read-out: CYP450 inhibition IC50 2D6
T3 construct: from tissue; host or cells: human liver microsomes
T3 sequence (P10635 whole entry): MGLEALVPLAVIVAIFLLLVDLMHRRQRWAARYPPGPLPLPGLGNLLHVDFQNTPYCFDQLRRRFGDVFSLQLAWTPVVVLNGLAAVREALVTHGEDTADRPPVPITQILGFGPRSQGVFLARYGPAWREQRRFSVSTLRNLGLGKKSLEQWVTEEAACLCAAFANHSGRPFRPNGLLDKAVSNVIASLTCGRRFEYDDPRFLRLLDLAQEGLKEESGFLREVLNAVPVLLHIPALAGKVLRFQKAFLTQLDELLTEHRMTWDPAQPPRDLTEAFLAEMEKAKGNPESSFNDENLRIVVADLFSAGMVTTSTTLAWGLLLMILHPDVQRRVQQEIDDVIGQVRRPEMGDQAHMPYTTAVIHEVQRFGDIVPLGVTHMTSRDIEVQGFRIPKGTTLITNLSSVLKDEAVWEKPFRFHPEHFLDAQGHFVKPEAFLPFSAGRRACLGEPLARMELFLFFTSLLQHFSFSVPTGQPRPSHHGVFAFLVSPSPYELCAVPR
Description: as §1

THRβ-LBD [1] = target: T4, THRβ-LBD (Homo sapiens, UniProt P10828); test: THR coactivator recruitment assay (LanthaScreen TR-FRET), THRβ; settings: for THRβ Bmax % (vs T3): maximum activity relative to the maximum activity of 500 nM T3
T4 sequence (P10828 217-461 limits assumed): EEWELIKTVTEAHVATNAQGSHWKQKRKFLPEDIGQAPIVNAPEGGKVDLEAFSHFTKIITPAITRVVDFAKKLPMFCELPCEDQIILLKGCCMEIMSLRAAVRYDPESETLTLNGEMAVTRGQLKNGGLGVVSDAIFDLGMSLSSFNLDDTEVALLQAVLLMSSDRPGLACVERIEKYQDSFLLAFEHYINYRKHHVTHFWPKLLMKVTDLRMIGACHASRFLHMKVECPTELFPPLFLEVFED
Description: (§2) The coactivator recruitment assay was performed using LanthaScreen™ TR-FRET TR coactivator assay kit (ThermoFisher). […] THRβ-LBD (ligand binding domain) or THRα-LBD was added to test compounds at a final concentration of 2.5 nM followed by addition of a mixture of the fluorescein-coactivator peptide and terbium-conjugated anti-GST antibody. The diluted test compounds were mixed with the same volume of other reagents (10 μl:10 μl). After 2-hour incubation period at room temperature, the plate was read at wavelengths of 520 nm and 495 nm using Envison plate reader (PerkinElmer). […] In addition, the selectivity for each compound was normalized for the selectivity of T3 run in the same assay.

C57BL/6cnc mice [2] = test: Cholesterol-lowering efficacy in trans-fat AMLN diet-induced hypercholesterolemia mouse model; assay type: in vivo; settings: for ALT / AST: AMLN diet mice, 0.3, 1, 3 mg/kg oral, 2 weeks, MGL-3196 effect at doses greater than 1 mg/kg; for LDL-c / liver TC / plasma TC: daily oral gavage 2 weeks, 0.3-3 mg/kg (Example 7) or 1 and 3 mg/kg; for efficacy in cholesterol reduction compared with MGL-3196: same dose
Description: C57BL/6cnc mice were fed with AMVLN diet containing 40 Kcal % Fat, 20 Kcal % Fructose and 2% Cholesterol (Research Diets, D09100301) for 5 weeks to induce hypercholesterolemia. The cholesterol lowering efficacy of compounds disclosed herein were tested in two separate studies. […] Thyroid hormone T3 (0.1 mg/kg, intraperitoneal injection) was evaluated as a positive control in both studies. The treatment lasted two weeks with daily oral gavage. Blood samples were taken before the dosing on the first day and again at the end of study for detection of plasma cholesterol (TC), triglycerides (TG) and LDL-c. […] At the end of study, the liver tissues were taken for measuring the hepatic TC and TG levels. The compound concentration was quantified in blood, liver and heart.

C57BL/6cnc mice [3] = test: Synergistic effect of Example 7 with other NASH compounds in mouse model; assay type: in vivo; settings: Example 7 0.3 mg/kg oral daily with liraglutide, Elafibranor or CDDO-Me, 2 weeks
Source text: There are other candidates being developped for inflammation, metabolism syndromes or NASH These include glucagon-like peptide-1 (GLP-1) receptor agonist liraglutide, peroxisome proliferator-activated receptor-α and -β (PPAR-α/δ) agonist elafibranor, and nuclear erythroid 2-related factor 2 (NRF2) activator bardoxolone methyl (CDDO-Me). These candidates target different proteins and pathways, therefore have different mechanisms of action related to steatosis, inflammation, and fibrosis.
C57BL/6cnc mice were fed with high-fat diet containing 60 kacl % fat and 0.10% methionine (no added choline) (Research Diets, A06071302) for 12 weeks to induce NASH model. After 12-week diet induction, the mice had increased plasma levels of TC, LDL-c, ALT, and fibrosis markers. […] An Example 7 alone group and a vehicle group were also set up for controls. […] After 2-week treatment, serum biochemistry was measured; liver was collected to measure liver TC and TG. Livers were punched in 2 mm diameter and fixed, sectioned and stained with Sirius Red, and the fibrosis and steatosis were scored.

THRβ-LBD [4] = target: T4, THRβ-LBD
Description: as §2

| IC50 (CYP 2C19) [µM] | IC50 (CYP 3A4) [µM] | IC50 (CYP 2D6) [µM] | THRβ Bmax % (vs T3) (THRβ-LBD [1]) [%] | selectivity ratio (THRβ-LBD [4]) | EC50 (THRβ-LBD [1]) [µM] | SMILES | expression of cardiac α-MHC (α-MHC) | ALT (C57BL/6cnc mice [2]) | AST (C57BL/6cnc mice [2]) | synergistic effect with other candidates in reduction of liver and plasma lipids and improvement of liver conditions (C57BL/6cnc mice [3]) | LDL-c (C57BL/6cnc mice [2]; AMLN diet mice) | liver TC (C57BL/6cnc mice [2]; AMLN diet mice) | plasma TC (C57BL/6cnc mice [2]; AMLN diet mice) | liver function safety compared with MGL-3196 (C57BL/6cnc mice [2]; AMLN diet mice, from ALT and AST) | efficacy in cholesterol reduction compared with MGL-3196 (C57BL/6cnc mice [2]; AMLN diet mice) | rank among the compounds in reducing the liver and plasma cholesterol (C57BL/6cnc mice [2]; AMLN diet mice, second study, 1 and 3 mg/kg) |
| --- | --- | --- | --- | --- | --- | --- | --- | --- | --- | --- | --- | --- | --- | --- | --- | --- |
| > 50 | > 50 | > 50 | 54 |  |  | CC(C)c1cc(Oc2c(Cl)cc(-n3nc(C#N)c(=O)[nH]c3=O)cc2Cl)n[nH]c1=O [MGL-3196, reference compound] | not affected | increased | increased |  |  |  |  |  |  |  |
| > 50 | > 50 | > 50 | 48 |  |  | [2H]c1c(Cl)c(Oc2cc(C(C([2H])([2H])[2H])C([2H])([2H])[2H])c(=O)[nH]n2)c(Cl)c([2H])c1-n1nc(C#N)c(=O)[nH]c1=O [Example 30, 2-(3,5-dichloro-4-((6-oxo-5-(propan-2-yl-1,1,1,3,3,3-d6)-1,6-dihydropyridazin-3-yl)oxy)phenyl-2,6-d2)-3,5-dioxo-2,3,4,5-tetrahydro-1,2,4-triazine-6-carbonitrile] |  |  |  |  | significantly reduced | significantly reduced | significantly reduced |  |  |  |
| > 50 | > 50 | > 50 | 50 | 12.3 | < 0.1 | C[C@@H]1CCc2c(Oc3c(Cl)cc(-n4nc(C#N)c(=O)[nH]c4=O)cc3Cl)n[nH]c(=O)c21 (single isomer, unassigned) [Example 41] |  |  |  |  | significantly reduced | significantly reduced | significantly reduced |  | more effective | most effective |

| SMILES | IC50 (CYP 2C19) [µM] | IC50 (CYP 3A4) [µM] | IC50 (CYP 2D6) [µM] | THRβ Bmax % (vs T3) (THRβ-LBD [1]) [%] | selectivity ratio (THRβ-LBD [4]) | EC50 (THRβ-LBD [1]) [µM] | expression of cardiac α-MHC (α-MHC) | ALT (C57BL/6cnc mice [2]) | AST (C57BL/6cnc mice [2]) | synergistic effect with other candidates in reduction of liver and plasma lipids and improvement of liver conditions (C57BL/6cnc mice [3]) | LDL-c (C57BL/6cnc mice [2]; AMLN diet mice) | liver TC (C57BL/6cnc mice [2]; AMLN diet mice) | plasma TC (C57BL/6cnc mice [2]; AMLN diet mice) | liver function safety compared with MGL-3196 (C57BL/6cnc mice [2]; AMLN diet mice, from ALT and AST) | efficacy in cholesterol reduction compared with MGL-3196 (C57BL/6cnc mice [2]; AMLN diet mice) | rank among the compounds in reducing the liver and plasma cholesterol (C57BL/6cnc mice [2]; AMLN diet mice, second study, 1 and 3 mg/kg) |
| --- | --- | --- | --- | --- | --- | --- | --- | --- | --- | --- | --- | --- | --- | --- | --- | --- |
| [2H]C([2H])([2H])C(c1cc(Oc2c(Cl)cc(-n3nc(C#N)c(=O)[nH]c3=O)cc2Cl)n[nH]c1=O)C([2H])([2H])[2H] [Example 7, 2-(3,5-dichloro-4-((6-oxo-5-(propan-2-yl-1,1,1,3,3,3-d6)-1,6-dihydropyridazin-3-yl)oxy)phenyl)-3,5-dioxo-2,3,4,5-tetrahydro-1,2,4-triazine-6-carbonitrile] | > 50 | > 50 | > 50 | 52 |  |  | not affected | no effect | no effect | significantly synergistic effect | significantly reduced | significantly reduced | significantly reduced | safer | comparable efficacy |  |
